Legend:
VEGFR I (FLT) = VEGFR I (FLT) (Homo sapiens, UniProt P17948); assay: Inhibition of FLT-1 kinase activity (33P-ATP, poly-(Glu4Tyr) phosphocellulose filter assay); type: biochemical; conditions: 10 minutes at room temperature, KH = keine Hemmung = No inhibition
Method: (§1) • Stock solutions • Stock solution A: 3 mmol of ATP in water, pH 7.0 (−70° C.) • Stock solution B: g-0.33P-ATP 1 mCi/100 μl • Stock solution C: poly-(Glu4Tyr) 10 mg/ml in water Solution for Dilutions • Substrate solvent: 10 mmol of DTT, 10 mmol of manganese chloride, 100 mmol of magnesium chloride • Enzyme solution: 120 mmol of tris/HCl, pH 7.5, 10 μm of sodium vanadium oxide Sample Application 1
(§2) Inhibition of the KDR- and FLT-1 kinase activity in the presence of the compounds according to the invention
(§3) It is thoroughly mixed and incubated for 10 minutes at room temperature. Then, 10 μl of stop solution (250 mmol of EDTA, pH 7.0) is added, mixed, and 10 μl of the solution is transferred to a P 81 phosphocellulose filter. Then, it is washed several times in 0.01 M phosphoric acid. The filter paper is dried, coated with Meltilex and measured in a microbeta counter.

VEGFR II (KDR) = VEGFR II (KDR) (Homo sapiens, UniProt P35968); assay: Inhibition of KDR kinase activity (33P-ATP, poly-(Glu4Tyr) phosphocellulose filter assay); type: biochemical; conditions: 10 minutes at room temperature, KH = keine Hemmung = No inhibition
Method: as §1, §2, §3

Chain of VEGFR II (KDR) (P35968 20-1356, species assumed): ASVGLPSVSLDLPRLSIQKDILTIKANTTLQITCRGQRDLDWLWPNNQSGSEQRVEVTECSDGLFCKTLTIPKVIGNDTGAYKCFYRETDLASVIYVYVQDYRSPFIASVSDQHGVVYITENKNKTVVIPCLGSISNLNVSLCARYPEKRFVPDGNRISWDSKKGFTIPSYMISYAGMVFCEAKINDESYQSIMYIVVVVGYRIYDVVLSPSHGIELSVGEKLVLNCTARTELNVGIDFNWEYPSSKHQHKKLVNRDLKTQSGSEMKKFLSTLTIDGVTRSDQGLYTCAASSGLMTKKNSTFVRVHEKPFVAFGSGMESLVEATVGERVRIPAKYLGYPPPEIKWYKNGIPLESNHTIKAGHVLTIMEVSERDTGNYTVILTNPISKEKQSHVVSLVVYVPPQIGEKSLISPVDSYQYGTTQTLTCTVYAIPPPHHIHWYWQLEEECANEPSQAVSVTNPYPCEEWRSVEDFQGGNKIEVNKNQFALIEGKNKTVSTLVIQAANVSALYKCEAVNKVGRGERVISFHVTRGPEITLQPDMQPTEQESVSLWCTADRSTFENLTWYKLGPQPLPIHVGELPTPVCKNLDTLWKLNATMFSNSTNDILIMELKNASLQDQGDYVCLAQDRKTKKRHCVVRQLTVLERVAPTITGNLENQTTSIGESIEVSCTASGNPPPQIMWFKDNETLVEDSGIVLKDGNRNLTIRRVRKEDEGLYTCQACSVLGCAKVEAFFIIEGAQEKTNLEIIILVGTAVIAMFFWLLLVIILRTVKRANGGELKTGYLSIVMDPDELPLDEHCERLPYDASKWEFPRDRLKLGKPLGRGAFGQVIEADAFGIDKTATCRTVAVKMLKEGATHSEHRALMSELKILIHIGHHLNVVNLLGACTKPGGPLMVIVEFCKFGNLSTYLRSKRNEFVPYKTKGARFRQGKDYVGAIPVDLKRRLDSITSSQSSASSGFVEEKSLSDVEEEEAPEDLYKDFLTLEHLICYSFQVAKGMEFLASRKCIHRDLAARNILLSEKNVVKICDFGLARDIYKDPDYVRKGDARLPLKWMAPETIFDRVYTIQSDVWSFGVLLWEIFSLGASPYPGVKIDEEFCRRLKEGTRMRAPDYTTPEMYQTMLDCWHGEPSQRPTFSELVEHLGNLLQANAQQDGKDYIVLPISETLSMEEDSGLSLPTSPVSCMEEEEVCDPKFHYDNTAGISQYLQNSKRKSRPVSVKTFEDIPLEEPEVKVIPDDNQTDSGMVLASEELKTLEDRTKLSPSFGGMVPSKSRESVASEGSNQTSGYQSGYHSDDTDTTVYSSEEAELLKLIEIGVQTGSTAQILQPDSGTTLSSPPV
Chain of VEGFR I (FLT) (P17948 27-1338, species assumed): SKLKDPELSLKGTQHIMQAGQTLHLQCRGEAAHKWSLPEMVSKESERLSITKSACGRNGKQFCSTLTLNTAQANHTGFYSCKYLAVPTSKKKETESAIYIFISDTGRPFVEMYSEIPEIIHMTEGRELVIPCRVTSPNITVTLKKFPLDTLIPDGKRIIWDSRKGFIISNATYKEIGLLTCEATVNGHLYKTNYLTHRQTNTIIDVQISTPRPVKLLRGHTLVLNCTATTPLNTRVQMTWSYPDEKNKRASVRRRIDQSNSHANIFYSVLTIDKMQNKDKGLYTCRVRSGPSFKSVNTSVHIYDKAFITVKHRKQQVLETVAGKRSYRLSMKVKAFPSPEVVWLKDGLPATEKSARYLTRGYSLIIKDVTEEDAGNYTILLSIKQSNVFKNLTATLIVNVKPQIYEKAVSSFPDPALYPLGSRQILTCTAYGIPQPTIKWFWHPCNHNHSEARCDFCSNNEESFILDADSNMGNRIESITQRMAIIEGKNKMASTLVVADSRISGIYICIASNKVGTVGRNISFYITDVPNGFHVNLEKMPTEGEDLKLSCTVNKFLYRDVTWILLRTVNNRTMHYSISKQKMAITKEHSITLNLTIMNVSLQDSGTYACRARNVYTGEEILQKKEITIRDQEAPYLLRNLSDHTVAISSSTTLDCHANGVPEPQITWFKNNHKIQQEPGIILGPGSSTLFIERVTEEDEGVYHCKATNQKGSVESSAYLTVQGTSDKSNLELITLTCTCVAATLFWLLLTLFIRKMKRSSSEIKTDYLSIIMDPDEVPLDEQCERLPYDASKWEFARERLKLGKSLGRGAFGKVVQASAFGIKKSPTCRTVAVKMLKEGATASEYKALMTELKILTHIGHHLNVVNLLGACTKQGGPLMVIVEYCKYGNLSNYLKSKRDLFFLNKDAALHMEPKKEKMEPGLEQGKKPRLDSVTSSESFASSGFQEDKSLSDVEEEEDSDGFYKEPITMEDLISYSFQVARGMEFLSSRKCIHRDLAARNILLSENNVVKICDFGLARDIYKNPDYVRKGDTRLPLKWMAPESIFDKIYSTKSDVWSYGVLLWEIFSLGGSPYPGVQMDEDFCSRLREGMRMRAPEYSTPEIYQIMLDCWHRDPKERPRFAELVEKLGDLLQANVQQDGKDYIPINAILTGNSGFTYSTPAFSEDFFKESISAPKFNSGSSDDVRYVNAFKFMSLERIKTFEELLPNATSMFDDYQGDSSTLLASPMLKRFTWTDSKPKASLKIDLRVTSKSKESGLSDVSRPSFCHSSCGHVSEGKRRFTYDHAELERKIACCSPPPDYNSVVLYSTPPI

SMILES	IC50 (VEGFR I (FLT))	IC50 (VEGFR II (KDR))
CN(NC(=O)c1ccccc1NCc1ccncc1)c1ccccc1 [Example 2.5]	1000 nM	–
O=C(N[C@@H]1CCCc2ccccc21)c1ccccc1NCc1ccncc1 [Example 2.24]	500 nM	> 1000 nM
COc1ccc(CCNC(=O)c2ccccc2NCc2ccncc2)cc1 [Example 2.35]	98 nM	20 nM
O=C(Nc1ccc2[nH]ncc2c1)c1ccccc1NCc1ccncc1 [Example 8.0, N-(indazol-5-yl) N2-(4-pyridylmethyl)-anthranilic acid amide]	40 nM	40 nM
O=C(NCCc1ccc(Cl)cc1)c1ccccc1NCc1ccc(O)cc1 [Example 4.0, N-[2-(4-chlorophenyl)ethyl]-N-2-(4-hydroxybenzyl)anthranilamide]	500 nM	200 nM
O=C(NCCCc1ccc(Cl)cc1)c1ccccc1NCc1ccncc1 [Example 2.14]	500 nM	300 nM
O=C(Nc1ccc2ncccc2c1)c1ccccc1NCc1ccncc1 [Example 2.52]	50 nM	–
O=C(NCc1cccc2ccccc12)c1ccccc1NCc1ccncc1 [Example 2.11]	20 nM	200 nM
CC(CNC(=O)c1ccccc1NCc1ccncc1)c1ccccc1 (stereo not drawn) [Example 2.18]	300 nM	500 nM
O=C(Nc1ccc2ccccc2n1)c1ccccc1NCc1ccncc1 [Example 2.53]	20 nM	20 nM
O=C(Nc1ccccn1)c1ccccc1NCc1ccncc1 [Example 2.37]	200 nM	–
O=C(NCCc1c[nH]c2cc(F)ccc12)c1ccccc1NCc1ccncc1 [Example 2.8]	500 nM	100 nM
O=C(Nc1ccc2c(c1)NCCC2)c1ccccc1NCc1ccncc1 [Example 2.49]	80 nM	50 nM
O=C(Nc1nnc(C(F)(F)F)s1)c1ccccc1NCc1ccncc1 [Example 2.41]	1000 nM	300 nM
O=C(NC1CCc2cc(Cl)ccc21)c1ccccc1NCc1ccncc1 (stereo not drawn) [Example 2.20]	4000 nM	–
O=C(Nc1cc2ccccc2c(Nc2cc3ccccc3c(Br)n2)n1)c1ccccc1NCc1ccncc1 [Example 2.33]	1000 nM	2000 nM
O=C(NCc1ccc2ccccc2n1)c1ccccc1NCc1ccncc1 [Example 2.48]	100 nM	500 nM
CC(NC(=O)c1ccccc1NCc1ccncc1)c1ccc(Cl)cc1 (stereo not drawn) [Example 2.15]	1000 nM	–
O=C(Nc1cccc2cccnc12)c1ccccc1NCc1ccncc1 [Example 2.34]	2000 nM	100 nM
COc1ccc(CNc2ccccc2C(=O)NCc2ccc(Cl)cc2)cc1 [Example 3.0, N-(4-chlorobenzyl)-N-2-(4-methoxybenzyl)anthranilamide]	–	3000 nM
O=C(Nc1ccc2nsnc2c1)c1ccccc1NCc1ccncc1 [Example 2.23]	20 nM	670 nM
O=C(NCCc1ccc(Cl)cc1)c1ccccc1NCc1ccncc1 [Example 2.3]	20 nM	20 nM
O=C(Nc1nccc2ccccc12)c1ccccc1NCc1ccncc1 [Example 2.31]	100 nM	270 nM
Cn1c(NC(=O)c2ccccc2NCc2ccncc2)nc2ccccc21 [Example 8.12]	200 nM	100 nM
CC(Cc1ccc(Cl)cc1)NC(=O)c1ccccc1NCc1ccncc1 (stereo not drawn) [Example 2.17]	400 nM	500 nM
O=C(Nc1cccc2ncccc12)c1ccccc1NCc1ccncc1 [Example 2.26]	200 nM	200 nM
O=C(Nc1nc2ccc(F)cc2s1)c1ccccc1NCc1ccncc1 [Example 8.16]	200 nM	300 nM
O=C(Nc1ccc2ncsc2c1)c1ccccc1NCc1ccncc1 [Example 8.8]	50 nM	20 nM
O=C(Nc1nc2ccc(OC(F)(F)F)cc2s1)c1ccccc1NCc1ccncc1 [Example 8.9]	500 nM	500 nM

More lines, now with the values ahead:

IC50 (VEGFR I (FLT))	IC50 (VEGFR II (KDR))	SMILES
5000 nM	–	COc1cc2c(cc1OC)CC(NC(=O)c1ccccc1NCc1ccncc1)CC2 (stereo not drawn) [Example 2.9]
2000 nM	300 nM	COc1ccc(CCNC(=O)c2ccccc2NCc2ccncc2)cc1OC [Example 2.21]
200 nM	–	O=C(Nc1ccncc1)c1ccccc1NCc1ccncc1 [Example 8.11]
700 nM	3000 nM	CC(NC(=O)c1ccccc1NCc1ccncc1)c1cccc2ccccc12 (stereo not drawn) [Example 2.12]
50 nM	50 nM	O=C(NCCCc1ccccc1)c1ccccc1NCc1ccncc1 [Example 2.0, N-(3-phenylprop-1-yl)-N2-(4-pyridylmethyl)-anthranilic acid amide]
10 nM	300 nM	O=C(NCc1ccc(Cl)cc1)c1ccccc1NCc1ccncc1 [Example 2.1]
50 nM	30 nM	O=C(Nc1ccc(Cl)cn1)c1ccccc1NCc1ccncc1 [Example 2.39]
> 10000 nM	> 10000 nM	CC(C)(NC(=O)c1ccccc1NCc1ccncc1)c1ccccc1 [Example 2.19]
3000 nM	–	O=C(NCc1ccncc1)c1ccccc1NCc1ccncc1 [Example 2.10]
20 nM	100 nM	O=C(NNc1ccc(Cl)cc1)c1ccccc1NCc1ccncc1 [Example 2.4]
300 nM	200 nM	O=C(Nc1cccc2cnccc12)c1ccccc1NCc1ccncc1 [Example 2.55]
7000 nM	200 nM	O=C(NCc1cccnc1)c1ccccc1NCc1ccncc1 [Example 2.38]
–	50 nM	O=C(Nc1nc2c(Cl)cccc2s1)c1ccccc1NCc1ccncc1 [Example 8.17]
300 nM	200 nM	O=C(NC1CCC(c2ccccc2)CC1)c1ccccc1NCc1ccncc1 (stereo not drawn) [Example 2.44]
20 nM	–	O=C(NCc1nccc2ccccc12)c1ccccc1NCc1ccncc1 [Example 2.47]
100 nM	500 nM	O=C(NC1Cc2ccccc2C1)c1ccccc1NCc1ccncc1 [Example 2.2]

IC50 (VEGFR I (FLT))	IC50 (VEGFR II (KDR))	SMILES
200 nM	2000 nM	O=C(NCc1cccs1)c1ccccc1NCc1ccncc1 [Example 2.6]
100 nM	–	O=C(N[C@H]1CCCc2ccccc21)c1ccccc1NCc1ccncc1 [Example 2.45]
100 nM	200 nM	CC(CNC(=O)c1ccccc1NCc1ccncc1)c1ccc(Cl)cc1 (stereo not drawn) [Example 2.16]
20 nM	50 nM	O=C(Nc1cc(-c2ccccc2)[nH]n1)c1ccccc1NCc1ccncc1 [Example 2.43]
700 nM	3000 nM	O=C(NC1CCCc2ccccc21)c1ccccc1NCc1ccncc1 (stereo not drawn) [Example 2.13]
500 nM	500 nM	O=C(Nc1nc2ccc(Cl)cc2s1)c1ccccc1NCc1ccncc1 [Example 8.13]
500 nM	100 nM	O=C(NCc1ccc(C(F)(F)F)cc1)c1ccccc1NCc1ccncc1 [Example 2.42]
200 nM	200 nM	O=C(Nc1ccc2[nH]nnc2c1)c1ccccc1NCc1ccncc1 [Example 8.15]
20 nM	20 nM	O=C(Nc1ccc2cn[nH]c2c1)c1ccccc1NCc1ccncc1 [Example 8.10]
20 nM	20 nM	O=C(Nc1ncc(Cl)cn1)c1ccccc1NCc1ccncc1 [Example 2.32]
–	0.3 nM	O=C(Nc1cc2ccccc2cn1)c1cc(F)ccc1NCc1ccncc1 [Example 2.63]
500 nM	–	O=C(Nc1cccnc1)c1ccccc1NCc1ccncc1 [Example 2.40]
20 nM	5 nM	O=C(Nc1cc2ccccc2cn1)c1ccccc1NCc1ccncc1 [Example 2.54]
500 nM	200 nM	O=C(Nc1ccc2nc[nH]c2c1)c1ccccc1NCc1ccncc1 [Example 8.14]
200 nM	200 nM	O=C(Nc1nc2ccccc2[nH]1)c1ccccc1NCc1ccncc1 [Example 8.2]
40 nM	20 nM	O=C(Nc1ccc2[nH]ccc2c1)c1ccccc1NCc1ccncc1 [Example 2.56]

— patent US7122547B1, “Anthranilic acid amides and the use thereof as medicaments” (Schering AG, priority 1998, dated 2006)
